Measured values: patent US20240285497A1, “METHOD FOR EVALUATING AN ABILITY OF A TEST SAMPLE TO TRIGGER A FOREIGN BODY REACTION IN THE SKIN, A METHOD FOR SCREENING A SUBSTANCE HAVING AN ABILITY TO INHIBIT A FOREIGN BODY REACTION IN THE SKIN, AND AN AGENT FOR INHIBITING A FOREIGN BODY REACTION IN THE SKIN” (priority 2021, published 2024)

Legend:
artemin mRNA = experiment: Inhibition of FICZ-induced artemin mRNA expression in HaCaT cells, quantitative PCR; assay type: cell-based, human
Experimental: First, HaCaT cells (CLI; Catalogue No.: 300493) were suspended in a DMEM medium at the density of 1×10^5 cell/mL, and 100 μL of the thus obtained suspension was added to each well of white 96-well plates (Thermo Fisher Scientific, MA, U.S.A.; Catalogue No.: 136102) so that the number of the cells in each well was 10,000 cells/well. In accordance with the conventional method, the cells were incubated for 24 hours at 37° C. and 5% CO2. Thereafter, the DMEM medium was removed, and 100 μL of a new DMEM medium containing both FICZ at predetermined concentration (500 nM or 5,000 nM) and Fraglide-1 at a predetermined concentration (0 nM or 250 nM). After incubation for 24 hours at 37° C. and 5% CO2, the total RNA was extracted, cDNA was prepared, and quantitative PCR was carrier out using the obtained cDNA in the same manner as described in Experiment 2. In FIG. 7, the results obtained for each sample were shown as a relative value, with the expression level of artemin mRNA in HaCaT cells incubated 24 hours in DMEM medium containing neither FICZ nor Fraglide-1 set to 1.
As described above, Fraglide-1 inhibited production of artemin induced by FICZ. Then, the following experiment was conducted in order to quantitatively evaluated the effect of inhibiting artemin production exerted by Fraglide-1. Briefly, HaCaT cells were treated with FICZ and Fraglide-1 in the same manner as in Experiment 3-1 except that the concentration of FICZ was set to 5,000 nM and the concentration of Fraglide-1 was set to 0 μM, 0.01 μM, 0.1 μM, 1 μM, 10 μM, and 100 µM, and then the total RNA was extracted, cDNA was prepared, and quantitative PCR was carried out. Based on the obtained result, the inhibition rate (Inhibition (%)) of the artemin mRNA expression triggered by FICZ when a given concentration of Fraglide-1 was added to the cell culture medium together with 5,000 nM of FICZ was calculated in accordance with the following formula. […]

[1] = test system: TIMP-1 (Tissue Inhibitor of Matrix Metalloprotease-1) mRNA; experiment: TIMP-1 mRNA expression in HaCaT cells, quantitative PCR; assay type: cell-based, human; settings: 100 μM, 24 hours
Experimental: Specifically, the mRNA expression of TIMP-1 in the HaCaT cells treated with Fraglide-1 was evaluated by performing quantitative PCR using cDNA obtained in Experiment 4-1. The procedure of quantitative PCR was the same as described in Experiment 4-1 except that the primers shown in below Table 5 were used.
(§1) In FIG. 14, the results obtained for each sample were shown in relative values normalized by setting the expression level of TIMP-1 in the HaCaT cells incubated for 24 hours in DMEM medium not containing Fraglide-1 (i.e., the non-treated HaCaT cells) as 1. The results shown in FIG. 14 are the mean of values obtained from three independent experiments, and the error bars represent standard deviation (SD).
On the other hand, as comparison, the similar evaluation was performed for retinoic acid and nicotinamide, which are known as active ingredients of anti-wrinkle agents, using cDNA obtained in Experiment 4-2. The procedure for quantitative PCR was the same as already described in Experiment 3-1, except that the primers shown in Table 5 were used.
as §1, with “15,” for “14,”, “either retinoic acid and nicotinic acid amide” for “Fraglide-1”, “15” for “14”

With O=C1C=C(c2ccccc2)C(O)O1 (centres unmarked) [Fraglide-1, 5-hydroxy-4-phenyl-2(5H)butenolide] the “Inhibition (%) of artemin mRNA expression triggered by FICZ” value (artemin mRNA; 100 nM (0.1 μM) Fraglide-1, 5,000 nM FICZ) was “approximately 50%”, the “expression level of artemin mRNA compared to cells without FICZ” value (artemin mRNA; 250 μM Fraglide-1 plus 500 nM or 5,000 nM FICZ, 24 hours) was “no increase in the expression level of artemin mRNA was observed” and the “inhibition of FICZ-induced expression of artemin, dependence on concentration” value (artemin mRNA; Fraglide-1 0.01-100 μM, 5,000 nM FICZ) was “in the concentration dependent manner”. The “expression level of TIMP-1 compared to non-treated HaCaT cells” value [1] was “about 4 fold” and the “expression level of TIMP-1 mRNA vs non-treated HaCaT cells (in words)” value ([1]; Fraglide-1 1 μM, 10 μM, retinoic acid / nicotinic acid amide at predetermined concentrations) was “concentration-dependent increase”.
